Results as given in US20020054941A1, “Methods and compositions to enhance tenderness and value of meat” (The Board of Regents of the University of Nebraska, priority 2000, published 2002).
Marks after values point to notes of the source that are not given here.

What was measured:
[1] = tested on: semimembranosus beef muscles; experiment: Muscle pH, pre-rigor injection of whole muscle; settings: for pH, 0 h: 0 h (before injection); for pH, 24 h / pH, 72 h: 200 mM, calcium chloride 300 mM
Experimental: (§1) Experiment were conducted to test the effects of pre-rigor injection of several compounds. Effects of these compounds on pH, color, tenderness and other related traits of low-value beef cuts were investigated. Ten steers (22 to 24 mo of age, 515 to 676 kg live weight) were slaughtered according to current industry procedures. Pre-rigor semimembranosus (from the round), triceps brachii and supraspinatus muscles (from the chuck) were excised, after evisceration (approximately 1 hour post-mortem), from both sides of the carcass. Muscle sections were randomly assigned to the treatments: sodium citrate (NaC; 200 mM), sodium fluoride (NaF; 200 mM), sodium acetate (NaA; 200 mM), and calcium chloride (CaCl2; 300 mM). The control samples remained on the carcass at 2° C. for 24 hours to simulate commercial conditions. Following a cooling, control muscles were removed from each carcass (4 replicates), vacuum packaged and transferred to the holding cooler with the other cuts at 2° C. Calcium chloride treatment was included to be compared with the other treatments.
(§2) At 2 hours post-mortem, each muscle was injected with a volume equal to 8% of the muscle weight using a four-needle hand injector. The temperature of solutions were 4° C. Each muscle was individually treated (2% of solution was added to give a total of 10% of muscle weight) and tumbled in a 75-pound capacity tumbler (Röschermatic, Oshabrück, Germany) for 30 min to insure uniform distribution of the solution.
(§3) Samples of each muscle (approximately 100 g) were taken at 0 hour (before injection), 24, and 72 hours after injection for determination of pH, oxidation-reduction potential, glycogen content, R-values, NAD, and NADH. The samples were then immediately frozen in liquid nitrogen and stored at −80° C. until they were powdered and analyzed. Fresh muscle samples (approximately 20 g) were taken at 72 hours after injection and assayed immediately for water holding capacity and sarcomere length.
(§4) Duplicate pre-rigor samples (5 g) were weighed from powdered sample and homogenized (Polytron, Brinkman Instruments, New York, N.Y.) in 50 mL of 5 mM iodoacetic acid, 150 mM potassium chloride (pH 7.0, 24° C.) to stop glycolysis (Ahn et al., 1992). The pH of the suspension was measured with a general purpose electrode (Corning Glass Works, Corning, N.Y.) attached to an Orion Model SA 720 pH meter (Orion Research, Inc., Boston, Mass.). Post-rigor muscle pH was determined by homogenizing 5 g of sample in 50 mL of deionized water (Winger et al., 1979).

[2] = tested on: supraspinatus beef muscles; experiment: Muscle pH, pre-rigor injection of whole muscle; settings: for pH, 0 h: 0 h (before injection); for pH, 24 h / pH, 72 h: 200 mM, calcium chloride 300 mM
Experimental: as §1, §2, §3, §4

[3] = tested on: triceps brachii beef muscles; experiment: Muscle pH, pre-rigor injection of whole muscle; settings: 200 mM, calcium chloride 300 mM; for pH, 0 h: 0 h (before injection); for pH, 24 h: 24 h after injection; for pH, 72 h: 72 h after injection
Experimental: as §1, §2, §3, §4

[4] = tested on: semimembranosus beef muscles; experiment: Warner-Bratzler shear force, pre-rigor injection of whole muscle; settings: 200 mM, calcium chloride 300 mM; for Shear force, 3 d: 3 d postmortem; for Shear force, 7 d: 7 d postmortem; for Shear force, 14 d: 14 d postmortem
Experimental: as §1, §2
(§5) Tenderness of samples was evaluated by measuring Warner-Bratzler shear force. Steaks (2.54-cm thick) from the middle of each muscle were cut and frozen at 3, 7 and 14 days postmortem. Frozen steaks (2.54 cm thick) were thawed at 4° C. for 24 hours and cooked on Farberware Open Hearth Broilers (Model 350A Walter Kidde, Bronx, N.Y.) to an internal temperature of 40° C., turned, and cooked to a final internal temperature of 70° C. (AMSA, 1995). Temperature was monitored using an OMEGA thermocouple thermometer type T (Omega Engineering, Inc., Stamford, Conn.) inserted into the geometric center of a steak. The cooked steaks were chilled 2 hours at 2° C., and then 8 cores (1.27-cm diameter) were removed parallel to the muscle fiber orientation. Cores were sheared once each on an Instron Universal Testing Machine model 55R1123 (Instron, Canton, Mass.) with a Warner-Braztler attachment. The Instron was set up with a 500 kg load cell, full scale load=1 (0-10 kg), and crosshead speed=250 mm/mim.

[5] = tested on: supraspinatus beef muscles; experiment: as above; settings: 200 mM; for Shear force, 3 d: 3 d postmortem; for Shear force, 3 d / Shear force, 7 d: calcium chloride 300 mM; for Shear force, 7 d: 7 d postmortem; for reduced shear force compared with controls: supraspinatus, 3 days post-mortem, CaCl2 300 mM
Experimental: as §1, §2, §5

[6] = tested on: triceps brachii beef muscles; experiment: as above; settings: 200 mM, calcium chloride 300 mM; for Shear force, 3 d: 3 d postmortem; for Shear force, 7 d: 7 d postmortem; for Shear force, 14 d: 14 d postmortem
Experimental: as §1, §2, §5

[7] = tested on: semimembranosus beef muscles; experiment: Glycogen content, pre-rigor injection of whole muscle; settings: for Glycogen, 0 h: 0 h (before injection); for Glycogen, 24 h / Glycogen, 72 h: 200 mM, calcium chloride 300 mM
Experimental: as §1, §2, §3
(§6) Glycogen extraction was performed in duplicate with 3 g of frozen-powdered muscle sample, which was homogenized with 0.6 N perchloric acid. Amylo-α-1,4-α-1,6- glucosidase from Aspergillus niger (No. A3514. Sigma Chemical, St. Louis, Mo.) was used for the breakdown of the glycogen molecules to free glucose following the method described by Roehrig and Allred (1974). Homogenate was incubated for 2 hours at 37° C., then 100 μL of 3 N perchloric acid was added to precipitate the proteins. After centrifugation, the supernatant was stored at 0-4° C., until analyzed, which was within 2 weeks.
(§7) The assay for glucose was run as described by Dalrymple and Hamm (1973) and Roehrig and Allred (1974), using glucose-6-phosphate dehydrogenase (No. G8878. Sigma Chemical, St. Louis, Mo.) and hexokinase (No. H5500. Sigma Chemical, St. Louis, Mo.). Briefly, the method involves an exoglucosidase, Amylogucosidase, from Aspergillus niger which hydrolyses the -α-D-(1-4) and -α-D-(1-6)-linkages of glycogen. The glucose formed is specifically determined with hexokinase and glucose-6-phosphate dehydrogenase. The glucose liberated after hydrolysis of glycogen is proportional to the increase of absorbance measured at 340 nm. Fifty μL of sample was incubated with 1 mL ATP, NADP, Glucose-6-phosphate dehydrogenase buffer and 5 μL hexokinase at 37° C. for 15 min. Absorbance was measured at 340 nm wavelength, light path=1 cm. The muscle glycogen content was calculated with the following formula: Glycogen (μmol glucose/g wet muscle weight)=111.882×absorbance. 111.882 is the dilution factor.

[8] = tested on: supraspinatus beef muscles; experiment: as above; settings: for Glycogen, 0 h: 0 h (before injection); for Glycogen, 24 h / Glycogen, 72 h: 200 mM, calcium chloride 300 mM
Experimental: as §1, §2, §3, §6, §7

[9] = tested on: triceps brachii beef muscles; experiment: as above; settings: 200 mM, calcium chloride 300 mM; for Glycogen, 0 h: 0 h (before injection)
Experimental: as §1, §2, §3, §6, §7

[10] = tested on: sternomandibularis beef muscles; experiment: Shear force of pre-rigor injected sectioned muscle; settings: 200 mM (glucose, calcium chloride 300 mM)
Experimental: Pre-rigor beef muscle was sectioned into 100 g. samples at approximately 3 hours post-mortem. The pieces were injected with 10 mL of treatment solution followed by marination in the solution for 24 hours at 2° C. before testing pH and recording visual color of the muscle sections. For evaluation of shear force, samples were thawed, cooked, sliced (approximately 6 mm by 6 mm) and then cooled before readings were taken. The solutions used for this procedure were as described above for homogenized muscle.
(§8) Pre-rigor beef muscle was sectioned and the sections were injected at approximately 1 hour post-mortem with a volume of treatment solution equal to 10% of the muscle weight. Objective color measurements were taken on pieces of each muscle section and the pieces were then frozen, powdered and stored at −80° C. for up to 10 days before testing pH and analyzing oxidation-reduction potential. Shear force was evaluated as described immediately above. Solutions used in this procedure were as follows: sodium citrate (200 mM), sodium acetate (200 mM), glucose (300 mM), calcium citrate (200 mM), calcium chloride (300 mM), injection with water, and no injection (control). The calcium citrate solution was prepared as a suspension using 0.25% carrageenan and 200 mM calcium citrate due to its insolubility in water. However, use of calcium citrate can be optimized by increasing solubility by means known in the art.

[11] = tested on: sternomandibularis beef muscles; experiment: pH of pre-rigor injected sectioned muscle; settings: injection 10% of muscle weight, 200 mM (glucose, calcium chloride 300 mM)
Experimental: as §8

[Ca+2].[Cl-].[Cl-] [Calcium chloride, calcium chloride, reference compound]
pH, 0 h [1]: 6.76
pH, 24 h [1]: 5.77^b
pH, 72 h [1]: 5.60^c
pH, 0 h [2]: 6.75
pH, 24 h [2]: 5.88^c
pH, 72 h [2]: 5.54^c
pH, 0 h [3]: 6.77
pH, 24 h [3]: 5.84^b
pH, 72 h [3]: 5.67^b
Shear force, 3 d [4]: 6.28 kg
Shear force, 7 d [4]: 5.36 kg
Shear force, 14 d [4]: 4.03 kg
Shear force, 3 d [5]: 5.55^c kg
Shear force, 7 d [5]: 4.84^b kg
reduced shear force compared with controls [5]: 1.73 kg
Shear force, 3 d [6]: 4.95^bc kg
Shear force, 7 d [6]: 4.87^b kg
Shear force, 14 d [6]: 4.07 kg
Glycogen, 0 h [7]: 58.18 μmol/g muscle
Glycogen, 24 h [7]: 45.90^ab μmol/g muscle
Glycogen, 72 h [7]: 37.10^ab μmol/g muscle
Glycogen, 0 h [8]: 37.98 μmol/g muscle
Glycogen, 24 h [8]: 26.75 μmol/g muscle
Glycogen, 72 h [8]: 19.31^b μmol/g muscle
Glycogen, 0 h [9]: 39.14 μmol/g muscle
Glycogen, 24 h [9]: 28.76^b μmol/g muscle
Glycogen, 72 h [9]: 25.01^bc μmol/g muscle
Shear force, kg (72 h) [10]: 6.61^a kg
PH (0 h) [11]: 6.77
pH, 72 h [11]: 5.88^d

O=C([O-])CC(O)(CC(=O)[O-])C(=O)[O-].O=C([O-])CC(O)(CC(=O)[O-])C(=O)[O-].[Ca+2].[Ca+2].[Ca+2] [Calcium citrate, calcium citrate]
Shear force, kg (72 h) [10]: 7.57^a kg
PH (0 h) [11]: 6.92
pH, 72 h [11]: 5.82^cd

CC(=O)[O-].[Na+] [Sodium acetate, sodium acetate]
pH, 0 h [1]: 6.75
pH, 24 h [1]: 5.70^b
pH, 72 h [1]: 5.38^d
pH, 0 h [2]: 6.81
pH, 24 h [2]: 5.85^c
pH, 72 h [2]: 5.64^c
pH, 0 h [3]: 6.78
pH, 24 h [3]: 5.80^b
pH, 72 h [3]: 5.48^c
Shear force, 3 d [4]: 6.61 kg
Shear force, 7 d [4]: 5.78 kg
Shear force, 14 d [4]: 5.08 kg
Shear force, 3 d [5]: 7.85^a kg
Shear force, 7 d [5]: 6.95^a kg
Shear force, 7 d ([5]; listed as NaA): significant increase in shear force
Shear force, 3 d [6]: 6.47^a kg
Shear force, 7 d [6]: 5.96^a kg
Shear force, 14 d [6]: 4.67 kg
Glycogen, 0 h [7]: 64.24 μmol/g muscle
Glycogen, 24 h [7]: 40.88^b μmol/g muscle
Glycogen, 72 h [7]: 28.64^b μmol/g muscle
Glycogen, 0 h [8]: 42.83 μmol/g muscle
Glycogen, 24 h [8]: 24.43 μmol/g muscle
Glycogen, 72 h [8]: 18.10^b μmol/g muscle
Glycogen, 0 h [9]: 49.53 μmol/g muscle
Glycogen, 24 h [9]: 28.74^b μmol/g muscle
Glycogen, 72 h [9]: 27.22^b μmol/g muscle
Shear force, kg (72 h) [10]: 9.88^ab kg
PH (0 h) [11]: 6.86
pH, 72 h [11]: 5.80^cd

[F-].[Na+] [Sodium fluoride, sodium fluoride, reference compound]
pH, 0 h [1]: 6.70
pH, 24 h [1]: 6.08^a
pH, 72 h [1]: 5.97^a
pH, 0 h [2]: 6.72
pH, 24 h [2]: 6.23^a
pH, 72 h [2]: 6.09^a
pH, 0 h [3]: 6.76
pH, 24 h [3]: 6.07^a
pH, 72 h [3]: 5.95^a
Shear force, 3 d [4]: 6.02 kg
Shear force, 7 d [4]: 5.56 kg
Shear force, 14 d [4]: 4.60 kg
Shear force, 3 d [5]: 6.13^bc kg
Shear force, 7 d [5]: 4.80^b kg
reduced shear force compared with controls [5]: 1.15 kg
Shear force, 3 d [6]: 5.18^bc kg
Shear force, 7 d [6]: 4.82^b kg
Shear force, 14 d [6]: 4.09 kg
Glycogen, 0 h [7]: 62.90 μmol/g muscle
Glycogen, 24 h [7]: 54.03^b μmol/g muscle
Glycogen, 72 h [7]: 43.77^a μmol/g muscle
Glycogen, 0 h [8]: 45.49 μmol/g muscle
Glycogen, 24 h [8]: 37.37 μmol/g muscle
Glycogen, 72 h [8]: 30.46^a μmol/g muscle
Glycogen, 0 h [9]: 48.22 μmol/g muscle
Glycogen, 24 h [9]: 43.98^a μmol/g muscle
Glycogen, 72 h [9]: 37.30^a μmol/g muscle
